Assay results as given in patent US7534590B2, “Method for producing monatin” (AJINOMOTO Co., Inc., priority 2003, dated 2009).
“Also recorded” adds a separate entry of the source. One block for each molecule: values may come before it.

What was measured:
[1] = pH stability of IHOG in amination reaction solution (without microbial cells); assay type: physicochemical
Description: [I] pH Stability of IHOG in Amination Reaction Solution
In order to examine the stability of IHOG in the IHOG amination solution, change of IHOG amounts with time in an IHOG amination solution was measured without adding the microbial cells. A test tube containing 1 mL of the reaction solution composed of 100 mM potassium phosphate buffer (pH 8.3), 300 mM (±)-IHOG, 600 mM DL-Ala and 1 mM pyridoxal-5′-phosphate was shaken at 37° C. for 40 hours, to perform the reaction. […] This is presumed to be attributed to the decomposition of IHOG into indole-3-pyruvic acid and pyruvic acid and the cyclization of IHOG.

[2] = pH stability of IHOG in buffer; assay type: physicochemical; settings: 0.54 mM IHOG, 40 mM potassium phosphate buffer, 35° C.
Description: [II] pH Stability of IHOG in Buffer
The survival rate of IHOG (0.54 mM) was measured in 40 mM potassium phosphate buffer at different pH. The storage temperature was adjusted to 35° C.

[3] = stability in strongly acidic or strongly alkaline solution to be treated; assay type: physicochemical; settings: for stability in strongly acidic solution: strongly acidic region
Description: The value of pH in the solution to be treated may be 2 to 12, more preferably 7 to 11 and particularly preferably 8 to 9.
When the solution to be treated is strongly acidic or alkaline and contains IHOG, IHOG is decomposed and can not be recovered. […] This cyclization is an irreversible reaction, and therefore, it is difficult to regenerate the cyclized IHOG to reuse for the monatin production.

[4] = cited from earlier work; for sweetness potency: relative to sucrose

stability in strongly acidic solution [3]: easily cyclized
SMILES: O=C(O)C(=O)CC(O)(Cc1c[nH]c2ccccc12)C(=O)O (racemic) [IHOG, 4-(indol-3-ylmethyl)-4-hydroxy-2-oxoglutaric acid]
Survival rate of IHOG ([1]; 100 mM potassium phosphate buffer pH 8.3, 300 mM (±)-IHOG, 600 mM DL-Ala, 1 mM pyridoxal-5'-phosphate, 37° C., after 16 hours): 81% | Survival rate of IHOG ([1]; same amination solution pH 8.3, 37° C., after 24 hours): 70% | Survival rate of IHOG ([1]; same amination solution pH 8.3, 37° C., after 40 hours): 57% | Survival rate of IHOG ([2]; pH 7, 2 hr): 97.4% | Survival rate of IHOG ([2]; pH 7, 7 hr): 90.0% | Survival rate of IHOG ([2]; pH 7, 24 hr): 68.4% | Survival rate of IHOG ([2]; pH 7, 48 hr): 45.6% | Survival rate of IHOG ([2]; pH 8, 2 hr): 100.6% | Survival rate of IHOG ([2]; pH 8, 7 hr): 100.1% | Survival rate of IHOG ([2]; pH 8, 24 hr): 96.4% | Survival rate of IHOG ([2]; pH 8, 48 hr): 89.6% | Survival rate of IHOG ([2]; pH 9, 2 hr): 100.6% | Survival rate of IHOG ([2]; pH 9, 7 hr): 101.1% | Survival rate of IHOG ([2]; pH 9, 24 hr): 99.0% | Survival rate of IHOG ([2]; pH 9, 48 hr): 94.4% | Survival rate of IHOG ([2]; pH 10, 2 hr): 97.0% | Survival rate of IHOG ([2]; pH 10, 7 hr): 96.8% | Survival rate of IHOG ([2]; pH 10, 24 hr): 94.2% | Survival rate of IHOG ([2]; pH 10, 48 hr): 90.8% | Survival rate of IHOG ([2]; pH 11, 2 hr): 95.6% | Survival rate of IHOG ([2]; pH 11, 7 hr): 90.7% | Survival rate of IHOG ([2]; pH 11, 24 hr): 74.8% | Survival rate of IHOG ([2]; pH 11, 48 hr): 59.3% | stability in strongly alkaline solution ([3]; strongly alkaline solution): easily decomposed into indole-3-pyruvic acid and pyruvic acid spontaneously

SMILES: N[C@H](C[C@](O)(Cc1c[nH]c2ccccc12)C(=O)O)C(=O)O (single isomer, unassigned) [(2R, 4R)-isomer]
sweetness rank among four optical isomers of monatin ([4]; comparison of the monatin isomers, listed as (2R, 4R)-monatin): the isomer having the highest sweetness among four optical isomers of monatin; also recorded: highest sweetness potency among monatin isomers | sweetness potency [4]: hundreds of times to thousands of times stronger than sucrose

SMILES: N[C@H](C[C@@](O)(Cc1c[nH]c2ccccc12)C(=O)O)C(=O)O (single isomer, unassigned) [(2R, 4S)-isomer]
sweetness potency [4]: hundreds of times to thousands of times stronger than sucrose

SMILES: N[C@@H](C[C@](O)(Cc1c[nH]c2ccccc12)C(=O)O)C(=O)O (single isomer, unassigned) [(2S, 4R)-isomer]
sweetness potency [4]: hundreds of times to thousands of times stronger than sucrose

SMILES: NC(CC(O)(Cc1c[nH]c2ccccc12)C(=O)O)C(=O)O (single isomer, unassigned) [(2S, 4S)-isomer]
sweetness potency [4]: hundreds of times to thousands of times stronger than sucrose

SMILES: NC(CC(O)(Cc1c[nH]c2ccccc12)C(=O)O)C(=O)O (centres unmarked) [Monatin]
stability in strongly acidic solution [3]: partially decomposed into lactam and lactone | sweetness potency [4]: dozens to thousands of times stronger than that of sucrose
